Assay results as given in ChEMBL document CHEMBL4619749, “Triazoxins: Novel nucleosides with anti-Giardia activity” (Bioorg Med Chem Lett, 2020).

Legend:
Format in all cases: functional, organism-based
Conditions in all cases: Giardia duodenalis
Giardia intestinalis [1] = assay: Antimicrobial activity against Giardia lamblia GS/M assessed as reduction in trophozoites formation
Giardia intestinalis [2] = assay: Antimicrobial activity against Giardia lamblia assemblage A WB C6 ATCC 30957 cyst
Giardia intestinalis [3] = assay: Antimicrobial activity against Giardia lamblia assemblage A WB C6 ATCC 30957 trophozoites

Row | SMILES | EC50 (Giardia intestinalis [1]) [µM] | IC50 (Giardia intestinalis [2]) [µM] | IC50 (Giardia intestinalis [3]) [µM]
1 | CC1(C)O[C@@H]2[C@H](O1)[C@@H](Cn1cc(CCCCc3cn(C[C@H]4O[C@@H](n5ccc(=O)[nH]c5=O)[C@@H]5OC(C)(C)O[C@@H]54)nn3)nn1)O[C@H]2n1ccc(=O)[nH]c1=O | – | > 50 | 47
2 | COc1ccc(Cn2cc(C#Cc3cn(C[C@H]4O[C@@H](n5ccc(=O)n(Cc6ccc(OC)cc6)c5=O)[C@@H]5OC(C)(C)O[C@@H]54)nn3)c(=O)n(Cc3ccc(OC)cc3)c2=O)cc1 | – | 5 | 36
3 | O=c1ccn([C@@H]2O[C@H](Cn3cc(C#CC#Cc4cn(C[C@H]5O[C@@H](n6ccc(=O)[nH]c6=O)[C@H](O)[C@@H]5O)nn4)nn3)[C@@H](O)[C@H]2O)c(=O)[nH]1 | – | > 50 | 47

More lines, now with the values ahead:

Row | EC50 (Giardia intestinalis [1]) [µM] | IC50 (Giardia intestinalis [2]) [µM] | IC50 (Giardia intestinalis [3]) [µM] | SMILES
4 | 5.2 | – | – | Cc1ncc([N+](=O)[O-])n1CCO [METRONIDAZOLE]
5 | – | 20 | 36 | O=c1ccn([C@@H]2O[C@H](Cn3cc(C#Cc4c[nH]c(=O)[nH]c4=O)nn3)[C@@H](O)[C@H]2O)c(=O)[nH]1
6 | – | > 50 | 5 | CC1(C)O[C@@H]2[C@H](O1)[C@@H](Cn1cc(C#Cc3c[nH]c(=O)[nH]c3=O)nn1)O[C@H]2n1ccc(=O)[nH]c1=O
